System: Meloidogyne sp.
Assay: Determination of the nematocidal activity against Meloidogyne sp. (potted tomato, greenhouse)
Type: in vivo
Details: for PLANT DEVELOPMENT (fresh weight g) / INFESTED ROOT % / reduction in parasitosis at the root level (in words) / GALL INDEX (scale 0-10): tomatoes, cv Marmande; for PLANT DEVELOPMENT (fresh weight g) / INFESTED ROOT % / GALL INDEX (scale 0-10): dose 4,000 g/hectare, survey 30 days after transplantation; for PLANT DEVELOPMENT (fresh weight g): infested blank 13; for INFESTED ROOT %: infested blank 70; for reduction in parasitosis at the root level (in words): 4,000 g/hectare, 30 days, comment on Table 6; for GALL INDEX (scale 0-10): Bridge-Page scale, 0 = 0% of root affected, 10 = 100% infested root, infested blank 7
Protocol: The tests aimed at testing the nematocidal activity of the product under examination are carried out using inocula taken from a cultivation of Meloidogyne sp. maintained on potted tomato and cucumber plants and grown in a greenhouse.
In order to carry out the experiments, portions of roots having a large number of galls and soil are taken from the infested pots, in which larvae are present starting from the second stage of age.
New pots having a diameter of 15 cm are half-filled with sterile earth. The portions of infested roots, previously cleaned, are placed on it to be able to correctly assess the degree of infestation and ensure that each pot contains the same nematic charge. 200-300 g of infested soil are then added, which are covered with a thin layer of sterile earth.
The treatment is carried out by pouring 100 ml of hydroacetonic solution onto the surface of the soil in which the product to be tested has been dissolved to obtain a concentration ranging from 70 to 100 ppm.
Tomato or cucumber seedlings at the stage of two or three actual leaves are transplanted in the pots thus prepared, after one or seven days from the application. Different cultivars of tomatoes (Microtom, Marmande) or cucumbers (Lungo della Cina) are used, having a different sensitivity to the parasite and different times of growth. In particular, for estimating the final production, a variety of ornamental tomatoes (cv Microtom) is used, whose seedlings are small in size and able to reach the maturity of the fruit in about two months in pots and under greenhouse conditions.
The containment capacity of the parasite is detected, 30 and 60 days after the transplantation, considering the development of the plant (whose fresh weight is detected) and the presence of galls on the roots.
This is estimated using both the infestation scale proposed by Bridge-Page (Tropical Pest Management 26 (3): 296-298, September 1980), according to which the value zero corresponds to 0% of root affected and the value 10 corresponds to 100% of infested root, and also considering the percentage of root mass affected.
Table 6 indicates the results relating to the effectiveness of Compounds Nr.

In the case of `Cn1c(=O)c2c(ncn2C)n(C)c1=O` [Caffeine, caffeine, reference compound], the “nematocidal activity of caffeine as verified by the Applicant (in words)” value (attack of the parasite and formation of galls on the root system, conditions not given) is reported as “unsatisfactory from the point of view of nematocidal activity”, the “PLANT DEVELOPMENT (fresh weight g)” value is reported as 12 g and the “INFESTED ROOT %” value is reported as 70%.

With `Cn1c(=O)c2c(ncn2CCS(=O)(=O)CCC(F)=C(F)F)n(C)c1=O` [Comp. Nr. 11, 1,3-dimethyl-7-[2-(3,4,4-trifluorobut-3-ene-1-sulfonyl)ethyl]-3,7-dihydro-1H-purin-2,6-dione] the “reduction in parasitosis at the root level (in words)” value was “decisive reduction in parasitosis at the root level”, the “GALL INDEX (scale 0-10)” value was 4.5 and the “PLANT DEVELOPMENT (fresh weight g)” value was 16 g. For the same compound, the “INFESTED ROOT %” value was 45%.

`Cn1c(=O)c2c(ncn2CC[S+]([O-])CCC(F)=C(F)F)n(C)c1=O` (centres unmarked) [Comp. Nr. 8, 1,3-dimethyl-7-[2-(3,4,4-trifluorobut-3-ene-1-sulfinyl)ethyl]-3,7-dihydro-1H-purin-2,6-dione] was tested, and the “GALL INDEX (scale 0-10)” value was 5, the “PLANT DEVELOPMENT (fresh weight g)” value was 17 g and the “INFESTED ROOT %” value was 50%.

In the case of `Cn1c(=O)c2c(ncn2CC(=O)OCCC(F)=C(F)F)n(C)c1=O` [Comp. Nr. 21, 3,4,4-trifluorobut-3-en-1-yl (1,3-dimethyl-2,6-dioxo-1,2,3,6-tetrahydro-7H-purin-7-yl) acetate], the “reduction in parasitosis at the root level (in words)” value is reported as “decisive reduction in parasitosis at the root level”, the “GALL INDEX (scale 0-10)” value is reported as 2 and the “PLANT DEVELOPMENT (fresh weight g)” value is reported as 20 g. The “INFESTED ROOT %” value was 20%.
